How the values were obtained:
Type in all cases: in vivo
Kochia (Kochia scoparia) [1] = test: Test A preemergence
Outline: (§1)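 Each rating is a visual injury score from 0 to 100 given about 10 d after treatment, judged against untreated controls kept alongside in the greenhouse. In loam soil–sand blend, seeds got a preemergence directed soil spray, while postemergence plants were 2 to 10 cm tall at spraying.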

[2] = test system: barnyardgrass (Echinochloa crus-galli); test: Test A preemergence
Outline: as §1

[3] = test system: giant foxtail (Setaria faberii); test: Test A preemergence
Outline: as §1

[4] = test system: pigweed (Amaranthus retroflexus); test: Test A preemergence
[5] = test system: ragweed (common ragweed, Ambrosia elatior); test: Test A preemergence
Outline: as §1

[6] = test system: ryegrass, Italian (Italian ryegrass, Lolium multiflorum); test: Test A preemergence
Outline: as §1

[7] = test system: Galium (catchweed bedstraw, Galium aparine); test: Test A postemergence; details: for Galium plant response rating: visual injury rating on 0 to 100 scale (0 no effect, 100 complete control), approx. 10 d
Outline: as §1

Kochia (Kochia scoparia) [8] = test: Test A postemergence; details: for Kochia plant response rating: visual injury rating on 0 to 100 scale (0 no effect, 100 complete control), approx. 10 d
Outline: as §1

[9] = test system: barnyardgrass (Echinochloa crus-galli); test: Test A postemergence
Outline: as §1

[10] = test system: blackgrass (Alopecurus myosuroides); test: Test A postemergence
Outline: as §1

corn (Zea mays) = test: Test A postemergence; details: for Corn plant response rating: visual injury rating on 0 to 100 scale (0 no effect, 100 complete control), approx. 10 d
Outline: as §1

[11] = test system: giant foxtail (Setaria faberii); test: Test A postemergence; details: for Foxtail, Giant plant response rating: visual injury rating on 0 to 100 scale (0 no effect, 100 complete control), approx. 10 d
Outline: as §1

[12] = test system: pigweed (Amaranthus retroflexus); test: Test A postemergence; details: for Pigweed plant response rating: visual injury rating on 0 to 100 scale (0 no effect, 100 complete control), approx. 10 d
Outline: as §1

[13] = test system: ragweed (common ragweed, Ambrosia elatior); test: Test A postemergence; details: for Ragweed plant response rating: visual injury rating on 0 to 100 scale (0 no effect, 100 complete control), approx. 10 d
Outline: as §1

[14] = test system: ryegrass, Italian (Italian ryegrass, Lolium multiflorum); test: Test A postemergence; details: for Ryegrass, Italian plant response rating: visual injury rating on 0 to 100 scale (0 no effect, 100 complete control), approx. 10 d
Outline: as §1

[15] = test system: wheat (Triticum aestivum); test: Test A postemergence; details: for Wheat plant response rating: visual injury rating on 0 to 100 scale (0 no effect, 100 complete control), approx. 10 d
Outline: as §1

[16] = test system: barnyardgrass (Echinochloa crus-galli); test: Test B flooded paddy test; details: Flood, 250 g ai/ha; 0 to 100 scale where 0 is no effect and 100 is complete control; 13 to 15 d
Outline: (§2)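 Visual ratings (0 none to 100 complete control) are relative to untreated plants, taken 13–15 d after treatment in a greenhouse. Test material went straight into floodwater standing 3 cm above the soil, kept constant, on plants at the 2-leaf stage.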

[17] = test system: ducksalad (Heteranthera limosa); test: Test B flooded paddy test; details: Flood, 250 g ai/ha; 0 to 100 scale where 0 is no effect and 100 is complete control; 13 to 15 d
Outline: as §2

rice (Oryra sativa) = test: Test B flooded paddy test; details: Flood, 250 g ai/ha; 0 to 100 scale where 0 is no effect and 100 is complete control; 13 to 15 d
Outline: as §2

[18] = test system: sedge, umbrella (small-flower umbrella sedge, Cyperus difformis); test: Test B flooded paddy test; details: Flood, 250 g ai/ha; 0 to 100 scale where 0 is no effect and 100 is complete control; 13 to 15 d
Outline: as §2

[19] = 125 g ai/ha, Preemergence, visual injury after approximately 10 d, 0 to 100 scale where 0 is no effect and 100 is complete control
[20] = 500 g ai/ha, preemergence, 0 to 100 scale, 0 = no effect, 100 = complete control
[21] = 125 g ai/ha, postemergence, visual rating after approx. 10 d, 0 to 100 scale (0 no effect, 100 complete control)
[22] = Postemergence, 500 g ai/ha, 0 to 100 scale where 0 is no effect and 100 is complete control
[23] = 125 g ai/ha, preemergence, 0 to 100 scale (0 no effect, 100 complete control)
[24] = Preemergence, 500 g ai/ha, 0 is no effect, 100 is complete control
[25] = 500 g ai/ha, postemergence, 0 to 100 scale, 0 no effect, 100 complete control
[26] = Postemergence, 125 g ai/ha, visual injury, 0 to 100 scale (0 no effect, 100 complete control), approx. 10 d
[27] = Preemergence, 500 g ai/ha, visual injury approx. 10 d
[28] = 125 g ai/ha, postemergence, visual injury rating on 0 to 100 scale (0 no effect, 100 complete control), approx. 10 d

CN1CC(c2ccc(C(F)(F)F)cc2)C(C(=O)Nc2ccc(F)cc2F)C1=O (stereo not drawn) [Compound 625]
90: Plant response rating, Barnyardgrass [2, 20] | Plant response rating, Foxtail, Giant [3, 19] | Plant response rating, Foxtail, Giant [3, 20] | Plant response rating, Pigweed [4, 20] | Plant response rating, Barnyardgrass [9, 22] | Plant response rating, Foxtail, Giant [11, 21] | Plant response rating, Foxtail, Giant [11, 22]
30: Plant response rating, Ryegrass, Italian [6, 19] | Plant response rating, Galium [7, 21] | Plant response rating, Kochia (Kochia (Kochia scoparia) [8]; [21]) | Plant response rating, Blackgrass [10, 21] | Plant response rating, Ryegrass, Italian [14, 22]
50: Plant response rating, Kochia (Kochia (Kochia scoparia) [1]; [19]) | Plant response rating, Pigweed [4, 19] | Plant response rating, Ryegrass, Italian [6, 20] | Plant response rating, Kochia (Kochia (Kochia scoparia) [8]; [22]) | Plant response rating, Corn (corn (Zea mays); [22]) | Plant response rating, Pigweed [12, 22] | Plant response rating, Wheat [15, 22]
20: Plant response rating, Ragweed [5, 19] | Plant response rating, Pigweed [12, 21] | Plant response rating, Ragweed [13, 22] | Plant response rating, Ryegrass, Italian [14, 21]
10: Plant response rating, Corn (corn (Zea mays); [21])
0: Plant response rating, Ragweed [13, 21] | Plant response rating, Wheat [15, 21] | Plant response rating, Rice (rice (Oryra sativa)) | Plant response rating, Sedge, Umbrella [18]
40: Plant response rating, Blackgrass [10, 22] | Plant response rating, Barnyardgrass [16]
80: Plant response rating, Kochia (Kochia (Kochia scoparia) [1]; [20]) | Plant response rating, Barnyardgrass [2, 19] | Plant response rating, Barnyardgrass [9, 21]
60: Plant response rating, Ragweed [5, 20] | Plant response rating, Galium [7, 22]
100: Plant response rating, Ducksalad [17]

COc1cccc(C2CNC(=O)C2C(=O)Nc2cccc(F)c2F)c1 (racemic) [Compound 383]
70: Foxtail, Giant plant response rating (0 to 100 scale) [3, 24] | Plant response rating, Barnyardgrass [9, 26]
0: Plant response rating, Kochia (Kochia (Kochia scoparia) [1]; [23]) | Plant response rating, Pigweed [4, 23] | Pigweed plant response rating (0 to 100 scale) [4, 24] | Plant response rating, Ragweed [5, 23] | Ragweed plant response rating (0 to 100 scale) [5, 24] | Plant response rating, Ryegrass, Italian [6, 23] | Galium plant response rating ([7]; 125 g ai/ha, postemergence) | Plant response rating, Galium [7, 25] | Kochia plant response rating (Kochia (Kochia scoparia) [8]; 125 g ai/ha, postemergence) | Plant response rating, Blackgrass [10, 25] | Plant response rating, Blackgrass [10, 26] | Corn plant response rating (corn (Zea mays); 125 g ai/ha, postemergence) | Plant response rating, Corn (corn (Zea mays); [25]) | Pigweed plant response rating ([12]; 125 g ai/ha, postemergence) | Plant response rating, Pigweed [12, 25] | Ragweed plant response rating ([13]; 125 g ai/ha, postemergence) | Wheat plant response rating ([15]; 125 g ai/ha, postemergence) | Plant response rating, Wheat [15, 25] | Plant response rating, Barnyardgrass [16] | Plant response rating, Rice (rice (Oryra sativa)) | Plant response rating, Sedge, Umbrella [18]
50: Plant response rating, Barnyardgrass [2, 23] | Plant response rating, Foxtail, Giant [3, 23] | Plant response rating, Foxtail, Giant [11, 25]
90: Barnyardgrass plant response rating (0 to 100 scale) [2, 24] | Plant response rating, Barnyardgrass [9, 25]
20: Kochia plant response rating (0 to 100 scale) (Kochia (Kochia scoparia) [1]; [24]) | Ryegrass, Italian plant response rating (0 to 100 scale) [6, 24] | Plant response rating, Ragweed [13, 25] | Ryegrass, Italian plant response rating ([14]; 125 g ai/ha, postemergence)
30: Plant response rating, Kochia (Kochia (Kochia scoparia) [8]; [25]) | Foxtail, Giant plant response rating ([11]; 125 g ai/ha, postemergence) | Plant response rating, Ryegrass, Italian [14, 25] | Plant response rating, Ducksalad [17]

O=C1NCC(c2ccc(Br)cc2)C1C(=O)Nc1ccccc1Cl (stereo not drawn) [Compound 453]
0: Plant response rating, Kochia (Kochia (Kochia scoparia) [1]; [23]) | Plant response rating, Ragweed [5, 23] | Plant response rating, Ryegrass, Italian [6, 23] | Ryegrass, Italian plant response rating (0 to 100 scale, 0 is no effect, 100 is complete control) [6, 27] | Blackgrass plant response rating [10, 28] | Corn plant response rating (corn (Zea mays); 125 g ai/ha, postemergence) | Pigweed plant response rating ([12]; 125 g ai/ha, postemergence) | Plant response rating, Pigweed [12, 25] | Ragweed plant response rating ([13]; 125 g ai/ha, postemergence) | Plant response rating, Ragweed [13, 25] | Ryegrass, Italian plant response rating ([14]; 125 g ai/ha, postemergence) | Plant response rating, Ryegrass, Italian [14, 25] | Wheat plant response rating ([15]; 125 g ai/ha, postemergence) | Plant response rating, Rice (rice (Oryra sativa)) | Plant response rating, Sedge, Umbrella [18]
40: Plant response rating, Galium [7, 25] | Plant response rating, Corn (corn (Zea mays); [25])
90: Barnyardgrass plant response rating (0 to 100 scale, 0 is no effect, 100 is complete control) [2, 27] | Plant response rating, Foxtail, Giant [3, 23] | Foxtail, Giant plant response rating (0 to 100 scale, 0 is no effect, 100 is complete control) [3, 27]
95: Plant response rating, Ducksalad [17]
80: Plant response rating, Barnyardgrass [2, 23] | Barnyardgrass plant response rating [9, 28] | Plant response rating, Barnyardgrass [9, 25] | Foxtail, Giant plant response rating ([11]; 125 g ai/ha, postemergence) | Plant response rating, Foxtail, Giant [11, 25]
20: Plant response rating, Pigweed [4, 23] | Ragweed plant response rating (0 to 100 scale, 0 is no effect, 100 is complete control) [5, 27] | Kochia plant response rating (Kochia (Kochia scoparia) [8]; 125 g ai/ha, postemergence)
30: Kochia plant response rating (0 to 100 scale, 0 is no effect, 100 is complete control) (Kochia (Kochia scoparia) [1]; [27]) | Pigweed plant response rating (0 to 100 scale, 0 is no effect, 100 is complete control) [4, 27] | Galium plant response rating ([7]; 125 g ai/ha, postemergence) | Plant response rating, Kochia (Kochia (Kochia scoparia) [8]; [25]) | Plant response rating, Blackgrass [10, 25] | Plant response rating, Wheat [15, 25] | Plant response rating, Barnyardgrass [16]

Source: patent US12077503B2, “Substituted cyclic amides and their use as herbicides” (FMC CORPORATION, priority 2015, dated 2024)
